Consider four compounds from ChEMBL document CHEMBL5331052, “Discovery of a novel water-soluble, rapid-release triptolide prodrug with improved drug-like properties and high efficacy in human acute myeloid leukemia” (Eur J Med Chem, 2022).

By solubility is commonly meant how much of the substance goes into solution per volume. One may read the Tmax as the time at which the peak concentration occurs. Broadly, the IC50 is the midpoint of a concentration-inhibition curve. Usually AUC(0-t) stands for exposure summed from dosing to a finite time, without extrapolation to infinity. Low readings indicate less exposure, high ones more exposure. The Cmax is the peak of the concentration-time curve.

The test system of data set [1] is MV4-11. The data set can be described thus: Antitumor activity against human MV4-11 cells xenografted in BALB/c nude mouse assessed as tumor growth inhibition at 0.5 mg/kg, po measured once every 2 days for 20 days relative to control. Type of data set: functional. Particulars: MV4-11, 480 h, time 20 day, read-out: TGI. A general note: In xenograft studies the graft and the host belong to different species.

Data set [2] relates to MV4-11. The data set can be described thus: Antitumor activity against human MV4-11 cells xenografted in BALB/c nude mouse assessed as tumor growth inhibition at 1 mg/kg, po measured once every 2 days for 20 days relative to control. As to conditions: MV4-11, 480 h, time 20 day, read-out: TGI. Type of data set: functional.
A short description of data set [3]: Prodrug conversion in human plasma assessed as triptolide release at 1 mg/ml measured after 1.5 hrs by HPLC analysis. The class given is ADME, cell-free.
Data set [4] can be described thus: Chemical stability of the compound in water assessed as parent compound remaining at 2 mg/ml measured immediately by HPLC analysis. Type of data set: physicochemical. Particulars: read-out: Stability.
A short description of data set [5]: Prodrug conversion in Sprague-Dawley rat plasma assessed as triptolide release at 50 ug/ml measured after 30 mins by HPLC analysis. The class given is ADME, cell-free. As to conditions: 0.5 h, dose 50 µg/ml.
A short description of data set [6]: Chemical stability of the compound in water assessed as parent compound remaining at 2 mg/ml measured after 4 hrs by HPLC analysis. Type of data set: physicochemical. Particulars: read-out: Stability.
Data set [7] can be described thus: Aqueous solubility of compound at 1 to 10 mg/ml by HPLC analysis. Type of data set: physicochemical. As to conditions: water; dose 1-10 mg/ml.
Data set [8] can be described thus: Prodrug conversion in human plasma assessed as triptolide release at 50 ug/ml measured after 45 mins by HPLC analysis. The class given is ADME, cell-free. As to conditions: 0.75 h, dose 50 µg/ml.
Data set [9] is described as follows: Prodrug conversion in Sprague-Dawley rat plasma assessed as triptolide release at 500 ng/ml measured after 8 hrs by UPLC-MS/MS analysis. Type of data set: ADME, cell-free.
For data set [10], the system named is MV4-11. Put plainly: Antitumor activity against human MV4-11 cells xenografted in BALB/c nude mouse assessed as tumor growth inhibition at 180 microg/kg/day, IG measured everyday for 11 days relative to control. As to conditions: MV4-11, po, 264 h, at 180 µg/kg/day, time 11 day, read-out: TGI. The class given is functional.
Data set [11] can be described thus: Tmax in Sprague-Dawley rat at 1.0 mg/kg, po administered via oral gavage and measured upto 24 hrs by LC-MS/MS analysis. Type of data set: ADME, organism-based. As to conditions: in vivo.
Data set [12] has as its system MV4-11. The data set can be described thus: Antiproliferative activity against human MV4-11 cells assessed as cell growth inhibition measured after 48 hrs by CCK8 assay. Type of data set: functional, cell-based. As to conditions: MV4-11, 48 h.
Data set [13] can be described thus: AUC (0 to t) in Sprague-Dawley rat at 1.0 mg/kg, po administered via oral gavage and measured upto 24 hrs by LC-MS/MS analysis. The class given is ADME, organism-based. Details: dose 1 mg/kg, time < 24 hrs, route po. Particulars: in vivo.
A short description of data set [14]: Cmax in Sprague-Dawley rat at 1.0 mg/kg, po administered via oral gavage and measured upto 24 hrs by LC-MS/MS analysis. The class given is ADME, organism-based. More on the design: dose 1 mg/kg, time < 24 hrs, route po. Particulars: in vivo.
In a further data set the test system is THP-1. Put plainly: Antiproliferative activity against human THP-1 cells assessed as inhibition of cell growth measured after 48 hrs by CCK8 assay. The class given is functional, cell-based. Particulars: THP-1, 48 h. (In general: Tetrazolium assays rely on reduction of a dye to a coloured formazan, in cell work by metabolically active cells.)

Molecules are shown by their SMILES.

In the case of `CCc1nc(C(N)=O)c(Nc2ccc(N3CCC(N4CCN(C)CC4)CC3)c(OC)c2)nc1NC1CCOCC1` [GILTERITINIB], in the data set with MV4-11 [1], the inhibition in vivo at 0.5 mg/kg was determined as 48.3%. In addition, in the data set with MV4-11 [2], the inhibition in vivo at 1 mg/kg is 72%.
`CC(C)[C@]12O[C@H]1[C@@H]1O[C@]13[C@]1(O[C@H]1C[C@H]1C4=C(CC[C@@]13C)C(=O)OC4)[C@@H]2OC(=O)CCCOC(=O)CN1CCOCC1.Cl`: the Drug metabolism result in [3], in data set [5] and in data set [8] was “Metabolite_Detected” in each case. The remaining at 0 h, 2 mg/ml in data set [4] was 95%. Besides, the remaining at 4 h, 2 mg/ml in data set [6] was 94.8%. Besides, the solubility in data set [7] was 7.49 mg/mL.
Regarding `CC(C)[C@]12O[C@H]1[C@@H]1O[C@]13[C@]1(O[C@H]1C[C@H]1C4=C(CC[C@@]13C)C(=O)OC4)[C@@H]2OCOP(=O)([O-])[O-].[Na+].[Na+]` [MINNELIDE], in [9], the Drug metabolism result is reported as “Metabolite_Detected”.
With `CC(C)[C@]12O[C@H]1[C@@H]1O[C@]13[C@]1(O[C@H]1C[C@H]1C4=C(CC[C@@]13C)C(=O)OC4)[C@@H]2O` [TRIPTOLIDE], in the data set on MV4-11 [10], the inhibition in vivo at 0.18 mg/kg/day worked out at 91.5%. Further, in [11], the Tmax turned out to be 26.4 min. For the same compound, the IC50 was 12 nM in the data set on MV4-11 [12] and 7.04 nM in the data set with THP-1. This compound also gave an AUC(0-t) at 24 h in [13] of 0.0319 µg·h/mL. For the same compound, the Cmax in data set [14] stood at 0.0159 µg/mL.
